pIC50: −log10 of the molar value.
Target: α7 nAChR (Homo sapiens, UniProt P36544)
Test: cell-based
Parameters: expressed in transfected cells; host or cells: Xenopus laevis oocytes injected with cRNA transcribed from α7-pSHE; species or system Human (expressed in Xenopus laevis oocytes)
Settings: Inhibition phase potency

Chain of α7 nAChR (P36544 23-502 limits assumed): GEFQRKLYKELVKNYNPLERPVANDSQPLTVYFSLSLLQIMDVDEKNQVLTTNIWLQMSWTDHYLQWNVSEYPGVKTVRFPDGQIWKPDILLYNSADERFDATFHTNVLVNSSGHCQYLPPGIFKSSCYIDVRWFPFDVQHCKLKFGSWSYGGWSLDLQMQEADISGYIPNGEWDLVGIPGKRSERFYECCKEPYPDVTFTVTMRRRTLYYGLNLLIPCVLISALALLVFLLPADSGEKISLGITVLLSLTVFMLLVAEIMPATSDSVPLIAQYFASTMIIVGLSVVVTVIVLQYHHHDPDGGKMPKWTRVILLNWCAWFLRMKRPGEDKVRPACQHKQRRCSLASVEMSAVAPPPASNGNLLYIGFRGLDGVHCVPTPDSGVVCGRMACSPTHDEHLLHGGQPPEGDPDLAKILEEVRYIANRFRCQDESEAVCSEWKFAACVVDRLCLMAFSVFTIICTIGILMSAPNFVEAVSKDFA

CC[C@H](C)[C@H](NC(=O)CNC(=O)[C@H](C)NC(=O)CNC(=O)[C@@H](NC(=O)[C@@H]1CCCN1C(=O)[C@@H](NC(=O)[C@H](CC(=O)O)NC(=O)[C@H](CS)NC(=O)[C@H](CCC(=O)O)NC(=O)[C@@H](N)Cc1ccc(O)cc1)[C@@H](C)CC)[C@@H](C)CC)C(=O)N[C@@H](CS)C(=O)N[C@@H](C)C(=O)N[C@@H](CO)C(=O)N[C@@H](Cc1ccc(O)cc1)C(=O)N[C@@H](CCC(N)=O)C(=O)N[C@H](C(=O)N[C@@H](CCC(N)=O)C(=O)N[C@H](C(=O)N[C@@H](CC(N)=O)C(=O)N[C@@H](CO)C(=O)N[C@@H](CCCNC(=N)N)C(=O)N[C@@H](CCCNC(=N)N)C(=O)N[C@@H](CCCNC(=N)N)C(=O)N[C@@H](C)C(=O)N[C@@H](CCCNC(=N)N)C(=O)N[C@@H](CO)C(=O)N[C@H](C(=O)N[C@@H](C)C(=O)N[C@@H](CO)C(=O)O)C(C)C)[C@@H](C)O)[C@@H](C)O [delta SCoV2P]
pIC50: 4.00
